Measurements: US9771369B2, “Compounds and methods for kinase modulation, and indications therefor” (Plexxikon Inc., priority 2014, dated 2017)

Target: c-Kit kinase (Homo sapiens (Human), UniProt P10721)
Assay: c-Kit biochemical assay (AlphaScreen kinase activity)
Outline: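 AlphaScreen: c-Kit phosphorylates biotin-(E4Y)3 (100 nM) at 10 μM ATP, pH 7.2 HEPES buffer with Mg/Mn, 5% DMSO, 1 h room temperature; streptavidin donor and PY30 acceptor beads detect product. Second format: 100 μM ATP, 30 nM biotin-(E4Y)10, pH 7.5. IC50 from 8-point 1:3 dilution curves.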

Chain of c-Kit kinase (P10721 26-976): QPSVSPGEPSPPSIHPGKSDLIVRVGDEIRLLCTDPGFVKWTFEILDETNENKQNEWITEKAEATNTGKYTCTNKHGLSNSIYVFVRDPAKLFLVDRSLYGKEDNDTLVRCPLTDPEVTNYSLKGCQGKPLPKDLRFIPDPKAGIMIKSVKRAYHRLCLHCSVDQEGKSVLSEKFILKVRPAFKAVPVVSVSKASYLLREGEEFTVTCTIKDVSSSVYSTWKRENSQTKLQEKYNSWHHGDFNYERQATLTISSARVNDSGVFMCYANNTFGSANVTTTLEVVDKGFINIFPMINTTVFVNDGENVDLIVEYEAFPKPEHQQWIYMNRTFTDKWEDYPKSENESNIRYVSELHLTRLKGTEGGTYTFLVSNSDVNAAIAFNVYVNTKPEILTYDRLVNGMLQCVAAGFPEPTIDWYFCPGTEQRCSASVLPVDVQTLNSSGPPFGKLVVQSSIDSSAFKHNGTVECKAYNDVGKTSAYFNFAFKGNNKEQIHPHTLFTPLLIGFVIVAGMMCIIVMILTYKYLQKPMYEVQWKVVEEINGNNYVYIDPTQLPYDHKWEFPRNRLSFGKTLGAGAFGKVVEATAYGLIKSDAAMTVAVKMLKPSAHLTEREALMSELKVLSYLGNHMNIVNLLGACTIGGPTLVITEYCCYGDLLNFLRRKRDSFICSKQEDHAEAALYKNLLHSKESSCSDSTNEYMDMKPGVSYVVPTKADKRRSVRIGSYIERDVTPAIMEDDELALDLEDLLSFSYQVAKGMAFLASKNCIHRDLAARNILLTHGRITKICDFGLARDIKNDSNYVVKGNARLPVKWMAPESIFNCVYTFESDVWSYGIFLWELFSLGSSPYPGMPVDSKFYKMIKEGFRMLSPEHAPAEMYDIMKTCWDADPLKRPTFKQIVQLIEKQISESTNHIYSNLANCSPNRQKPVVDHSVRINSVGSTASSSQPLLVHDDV

Question: Which IC50 does the source give for `Cc1nc(C2CCN(c3ncnc4[nH]c(-c5ccnc(OC(C)C)c5)cc34)CC2)[nH]c1-c1ccccc1` [P-3078, 6-(2-isopropoxy-4-pyridyl)-4-[4-(4-methyl-5-phenyl-1H-imidazol-2-yl)-1-piperidyl]-7H-pyrrolo[2,3-d]pyrimidine] here?
Answer: 0.0001 to 1 µM

Question: `Cc1nc(C2CCN(c3ncnc4[nH]c(-c5ccnc(N6CCCC6)c5)cc34)CC2)[nH]c1-c1ccccc1` [P-3079, 4-[4-(4-methyl-5-phenyl-1H-imidazol-2-yl)-1-piperidyl]-6-(2-pyrrolidin-1-yl-4-pyridyl)-7H-pyrrolo[2,3-d]pyrimidine] was tested. Which IC50 did it give?
Answer: 0.0001 to 1 µM

Question: `Cc1nc(C2CCN(c3ncnc4[nH]c(-c5cccc(OC(F)(F)F)c5)cc34)CC2)[nH]c1-c1ccccc1` [P-3080, 4-[4-(4-methyl-5-phenyl-1H-imidazol-2-yl)-1-piperidyl]-6-[3-(trifluoromethoxy)phenyl]-7H-pyrrolo[2,3-d]pyrimidine] was tested. Which IC50 did it give?
Answer: 1 to 10 µM

Question: For `Cc1nc(C2CCN(c3ncnc4[nH]c(-c5cccc(F)c5)cc34)CC2)[nH]c1-c1ccccc1` [P-3081, 6-(3-fluorophenyl)-4-[4-(4-methyl-5-phenyl-1H-imidazol-2-yl)-1-piperidyl]-7H-pyrrolo[2,3-d]pyrimidine], which IC50 is on record?
Answer: 0.0001 to 1 µM

Question: For `Cc1nc(C2CCN(c3ncnc4[nH]c(-c5cccc(NS(C)(=O)=O)c5)cc34)CC2)[nH]c1-c1ccccc1` [P-3083, N-[3-[4-[4-(4-methyl-5-phenyl-1H-imidazol-2-yl)-1-piperidyl]-7H-pyrrolo[2,3-d]pyrimidin-6-yl]phenyl]methane sulfonamide], which IC50 is on record?
Answer: 0.0001 to 1 µM

Question: Which IC50 does the source give for `Cc1nc(C2CCN(c3ncnc4[nH]c(-c5ccc(F)cc5)cc34)CC2)[nH]c1-c1ccc2c(c1)OCCO2` [P-3084, 4-[4-[5-(2,3-dihydro-1,4-benzodioxin-6-yl)-4-methyl-1H-imidazol-2-yl]-1-piperidyl]-6-(4-fluorophenyl)-7H-pyrrolo[2,3-d]pyrimidine] here?
Answer: 0.0001 to 1 µM

Question: `Cc1nc(C2CCN(c3ncnc4[nH]c(-c5ccc(F)cc5)cc34)CC2)[nH]c1-c1ccc(OC(F)(F)F)cc1` [P-3085, 6-(4-fluorophenyl)-4-[4-[4-methyl-5-[4-(trifluoromethoxy)phenyl]-1H-imidazol-2-yl]-1-piperidyl]-7H-pyrrolo[2,3-d]pyrimidine] was tested. Which IC50 did it give?
Answer: 0.0001 to 1 µM

Question: `Cc1nc(C2CCN(c3ncnc4[nH]c(-c5ccc(C#N)cc5)cc34)CC2)[nH]c1-c1ccc(OC(F)(F)F)cc1` [P-3086, 4-[4-[4-[4-methyl-5-[4-(trifluoromethoxy)phenyl]-1H-imidazol-2-yl]-1-piperidyl]-7H-pyrrolo[2,3-d]pyrimidin-6-yl]benzonitrile] was tested. Which IC50 did it give?
Answer: 1 to 10 µM

Question: How did the IC50 turn out when `COc1cc(-c2cc3c(N4CCC(c5nc(C)c(-c6ccc(OC(F)(F)F)cc6)[nH]5)CC4)ncnc3[nH]2)ccn1` [P-3087, 6-(2-methoxy-4-pyridyl)-4-[4-[4-methyl-5-[4-(trifluoromethoxy)phenyl]-1H-imidazol-2-yl]-1-piperidyl]-7H-pyrrolo[2,3-d]pyrimidine] was run?
Answer: 1 to 10 µM

Question: With `COc1cc(-c2cc3c(N4CCC(c5nc(C)c(-c6ccc(C)cc6)[nH]5)CC4)ncnc3[nH]2)ccn1` [P-3088, 6-(2-methoxy-4-pyridyl)-4-[4-[4-methyl-5-(p-tolyl)-1H-imidazol-2-yl]-1-piperidyl]-7H-pyrrolo[2,3-d]pyrimidine] as the molecule, how does the IC50 read?
Answer: 0.0001 to 1 µM

Question: `COc1ccc(-c2[nH]c(C3(C)CCN(c4ncnc5[nH]c(-c6ccc(C#N)nc6)cc45)CC3)nc2C)cc1C` [P-3250, 5-[4-[4-[5-(4-methoxy-3-methyl-phenyl)-4-methyl-1H-imidazol-2-yl]-4-methyl-1-piperidyl]-7H-pyrrolo[2,3-d]pyrimidin-6-yl]pyridine-2-carbonitrile] was tested. Which IC50 did it give?
Answer: 0.0001 to 1 µM

Question: Which IC50 does the source give for `CCOc1ccc(-c2[nH]c(C3(C)CCN(c4ncnc5[nH]c(-c6ccc(C#N)nc6)cc45)CC3)nc2C)cc1` [P-3251, 5-[4-[4-[5-(4-ethoxyphenyl)-4-methyl-1H-imidazol-2-yl]-4-methyl-1-piperidyl]-7H-pyrrolo[2,3-d]pyrimidin-6-yl]pyridine-2-carbonitrile] here?
Answer: 0.0001 to 1 µM

Question: For `Cc1nc(C2(C)CCN(c3ncnc4[nH]c(-c5ccc(NS(C)(=O)=O)cc5)cc34)CC2)[nH]c1-c1ccc(C(F)F)cc1` [P-3252, N-[4-[4-[4-[5-[4-(difluoromethyl)phenyl]-4-methyl-1H-imidazol-2-yl]-4-methyl-1-piperidyl]-7H-pyrrolo[2,3-d]pyrimidin-6-yl]phenyl]methanesulfonamide], which IC50 is on record?
Answer: 0.0001 to 1 µM

Question: `Cc1nc(C2(C)CCN(c3ncnc4[nH]c(-c5ccc(C(N)=O)cc5)cc34)CC2)[nH]c1-c1ccc(OC(F)F)cc1` [P-3253, 4-[4-[4-[5-[4-(difluoromethoxy)phenyl]-4-methyl-1H-imidazol-2-yl]-4-methyl-1-piperidyl]-7H-pyrrolo[2,3-d]pyrimidin-6-yl]benzamide] was tested. Which IC50 did it give?
Answer: 0.0001 to 1 µM

Question: With `Cc1nc(C2(C)CCN(c3ncnc4[nH]c(-c5ccc(NS(C)(=O)=O)cc5)cc34)CC2)[nH]c1-c1ccc(OC(F)F)cc1` [P-3254, N-[4-[4-[4-[5-[4-(difluoromethoxy)phenyl]-4-methyl-1H-imidazol-2-yl]-4-methyl-1-piperidyl]-7H-pyrrolo[2,3-d]pyrimidin-6-yl]phenyl]methanesulfonamide] as the molecule, how does the IC50 read?
Answer: 0.0001 to 1 µM

Question: How did the IC50 turn out when `Cc1nc(C2(C)CCN(c3ncnc4[nH]c(-c5ccc(C#N)nc5)cc34)CC2)[nH]c1-c1cccc(OC(F)F)c1` [P-3255, 5-[4-[4-[5-[3-(difluoromethoxy)phenyl]-4-methyl-1H-imidazol-2-yl]-4-methyl-1-piperidyl]-7H-pyrrolo[2,3-d]pyrimidin-6-yl]pyridine-2-carbonitrile] was run?
Answer: 1 to 10 µM

Question: `COc1cccc(-c2[nH]c(C3(C)CCN(c4ncnc5[nH]c(-c6ccc(C#N)nc6)cc45)CC3)nc2C)c1` [P-3256, 5-[4-[4-[5-(3-methoxyphenyl)-4-methyl-1H-imidazol-2-yl]-4-methyl-1-piperidyl]-7H-pyrrolo[2,3-d]pyrimidin-6-yl]pyridine-2-carbonitrile] was tested. Which IC50 did it give?
Answer: 0.0001 to 1 µM
